Earlier results as cited in patent US11753385B2, “Method for producing kakeromycin and derivatives thereof” (OP BIO FACTORY CO., LTD., priority 2015, dated 2023).

Legend:
[1] = test system: PANC-1 pancreas cancer cell
pathogens of candidiasis = conditions: background statement, in words only

SMILES: CC=C(Cc1ccccc1)C12CC(O)CCN1O2 (stereo not drawn) [kakeromycin]
- cytotoxicity (HepG2 liver cancer cell): shows cytotoxicity
- cytotoxicity [1]: shows cytotoxicity
- antibacterial activity against pathogens of candidiasis (pathogens of candidiasis): strong antibacterial activity
